In the kinase profiling compilation of Christmann-Franck et al. (2016):

What was measured:
Experiment in all cases: KINOMEscan competition binding
Details in all cases: compound 10.0 µM
[1] = system: ABL1 (human), P00519 [F317L]
[2] = system: ABL1 (human), P00519 [Y253F]
ALK (human) = ALK (human) (UniProt Q9UM73)
BMPR2 (human) = BMPR2 (human) (UniProt Q13873)
BRSK1 (human) = BRSK1 (human) (UniProt Q8TDC3)
CAMK2A (human) = CAMK2A (human) (UniProt Q9UQM7)
CDK15 (human) = CDK15 (human) (UniProt Q96Q40)
CDK3 (human) = CDK3 (human) (UniProt Q00526)
CSNK1G1 (human) = CSNK1G1 (human) (UniProt Q9HCP0)
CSNK1G2 (human) = CSNK1G2 (human) (UniProt P78368)
DDR1 (human) = DDR1 (human) (UniProt Q08345)
EPHA7 (human) = EPHA7 (human) (UniProt Q15375)
EPHA8 (human) = EPHA8 (human) (UniProt P29322)
FGR (human) = FGR (human) (UniProt P09769)
[3] = system: FLT3 (human), P36888 [D835Y]
[4] = system: FLT3 (human), P36888 [ITD]
[5] = system: FLT3 (human), P36888 [N841I]
IGF1R (human) = IGF1R (human) (UniProt P08069)
INSR (human) = INSR (human) (UniProt P06213)
ITK (human) = ITK (human) (UniProt Q08881)
KDR (human) = KDR (human) (UniProt P35968)
[6] = system: KIT (human), P10721 [D816V]
MAP3K2 (human) = MAP3K2 (human) (UniProt Q9Y2U5)
MAP3K6 (human) = MAP3K6 (human) (UniProt O95382)
MAP4K3 (human) = MAP4K3 (human) (UniProt Q8IVH8)
MAPK13 (human) = MAPK13 (human) (UniProt O15264)
MAPK9 (human) = MAPK9 (human) (UniProt P45984)
MAPKAPK5 (human) = MAPKAPK5 (human) (UniProt Q8IW41)
MARK4 (human) = MARK4 (human) (UniProt Q96L34)
MAST1 (human) = MAST1 (human) (UniProt Q9Y2H9)
NTRK3 (human) = NTRK3 (human) (UniProt Q16288)
PIK3C2B (human) = PIK3C2B (human) (UniProt O00750)
[7] = system: PIK3CA (human), P42336 [H1047Y]
PIK3CD (human) = PIK3CD (human) (UniProt O00329)
[8] = system: RET (human), P07949 [V804M]
RPS6KA4 KD2 (human) = RPS6KA4 KD2 (human) (UniProt O75676)
SIK2 (human) = SIK2 (human) (UniProt Q9H0K1)
STK17B (human) = STK17B (human) (UniProt O94768)
STK36 (human) = STK36 (human) (UniProt Q9NRP7)
TEC (human) = TEC (human) (UniProt P42680)
TYRO3 (human) = TYRO3 (human) (UniProt Q06418)
WEE2 (human) = WEE2 (human) (UniProt P0C1S8)

Chain of IGF1R (human) (P08069 whole entry, looked up): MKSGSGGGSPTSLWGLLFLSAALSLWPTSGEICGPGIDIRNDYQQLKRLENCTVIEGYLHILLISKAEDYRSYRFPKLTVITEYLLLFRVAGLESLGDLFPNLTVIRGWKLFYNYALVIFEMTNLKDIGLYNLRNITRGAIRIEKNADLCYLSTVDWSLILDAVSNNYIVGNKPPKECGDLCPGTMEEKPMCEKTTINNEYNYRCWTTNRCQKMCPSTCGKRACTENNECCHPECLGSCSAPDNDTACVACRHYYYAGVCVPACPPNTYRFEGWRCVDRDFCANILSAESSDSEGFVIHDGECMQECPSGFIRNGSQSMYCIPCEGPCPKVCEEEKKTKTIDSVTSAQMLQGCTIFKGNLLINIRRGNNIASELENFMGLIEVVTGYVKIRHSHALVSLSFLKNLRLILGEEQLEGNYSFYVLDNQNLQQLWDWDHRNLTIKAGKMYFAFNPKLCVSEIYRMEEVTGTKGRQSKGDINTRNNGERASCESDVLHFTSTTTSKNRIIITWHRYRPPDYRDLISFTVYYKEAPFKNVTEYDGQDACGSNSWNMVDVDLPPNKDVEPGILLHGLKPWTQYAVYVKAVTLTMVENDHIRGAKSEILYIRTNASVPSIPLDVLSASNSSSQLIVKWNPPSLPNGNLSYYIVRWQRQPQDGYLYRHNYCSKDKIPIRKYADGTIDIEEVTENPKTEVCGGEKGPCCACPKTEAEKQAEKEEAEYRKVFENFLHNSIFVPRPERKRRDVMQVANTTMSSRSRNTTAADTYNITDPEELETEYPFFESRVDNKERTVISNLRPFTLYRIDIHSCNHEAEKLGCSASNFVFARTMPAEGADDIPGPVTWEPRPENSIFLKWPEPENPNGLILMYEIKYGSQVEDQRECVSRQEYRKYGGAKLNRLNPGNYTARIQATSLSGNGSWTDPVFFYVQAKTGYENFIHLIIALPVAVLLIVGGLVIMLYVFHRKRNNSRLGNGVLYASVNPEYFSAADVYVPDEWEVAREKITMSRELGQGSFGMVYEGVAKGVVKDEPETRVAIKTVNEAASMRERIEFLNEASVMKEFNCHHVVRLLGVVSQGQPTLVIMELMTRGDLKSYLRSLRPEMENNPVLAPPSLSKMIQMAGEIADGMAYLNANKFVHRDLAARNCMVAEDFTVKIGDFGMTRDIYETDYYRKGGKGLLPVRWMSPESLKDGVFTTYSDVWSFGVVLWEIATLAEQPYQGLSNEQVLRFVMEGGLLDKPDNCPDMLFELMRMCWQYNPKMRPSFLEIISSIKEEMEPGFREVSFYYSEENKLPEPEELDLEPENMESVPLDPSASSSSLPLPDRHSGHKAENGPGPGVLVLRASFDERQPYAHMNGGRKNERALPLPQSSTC
Chain of SIK2 (human) (Q9H0K1 whole entry, looked up): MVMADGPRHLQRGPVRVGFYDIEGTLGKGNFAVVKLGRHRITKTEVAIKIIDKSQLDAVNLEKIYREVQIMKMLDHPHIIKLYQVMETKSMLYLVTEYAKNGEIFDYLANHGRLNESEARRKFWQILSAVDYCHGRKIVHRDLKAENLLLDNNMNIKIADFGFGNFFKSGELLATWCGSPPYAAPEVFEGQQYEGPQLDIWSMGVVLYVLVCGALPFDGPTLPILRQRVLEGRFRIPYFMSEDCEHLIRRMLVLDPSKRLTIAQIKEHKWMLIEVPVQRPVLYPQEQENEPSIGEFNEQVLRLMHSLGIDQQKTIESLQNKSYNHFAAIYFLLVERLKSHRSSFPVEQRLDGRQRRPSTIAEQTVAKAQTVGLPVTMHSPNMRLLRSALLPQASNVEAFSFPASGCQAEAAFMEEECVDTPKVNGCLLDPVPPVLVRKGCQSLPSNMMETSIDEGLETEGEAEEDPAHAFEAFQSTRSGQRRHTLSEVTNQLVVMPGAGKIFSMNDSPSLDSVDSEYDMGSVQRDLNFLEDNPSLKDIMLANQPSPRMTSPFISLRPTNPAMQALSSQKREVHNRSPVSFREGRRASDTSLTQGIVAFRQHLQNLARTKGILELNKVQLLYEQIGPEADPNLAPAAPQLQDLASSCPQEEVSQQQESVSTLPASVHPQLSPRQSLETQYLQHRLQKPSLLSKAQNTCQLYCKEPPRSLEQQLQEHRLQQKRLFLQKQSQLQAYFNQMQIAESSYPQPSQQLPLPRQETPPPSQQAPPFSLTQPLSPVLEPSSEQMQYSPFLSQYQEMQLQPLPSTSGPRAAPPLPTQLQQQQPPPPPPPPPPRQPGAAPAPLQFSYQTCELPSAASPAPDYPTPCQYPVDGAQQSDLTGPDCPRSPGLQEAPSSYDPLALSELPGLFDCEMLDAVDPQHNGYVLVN
Chain of PIK3CA (human), P42336 [H1047Y] (P42336 whole entry H1047Y, looked up): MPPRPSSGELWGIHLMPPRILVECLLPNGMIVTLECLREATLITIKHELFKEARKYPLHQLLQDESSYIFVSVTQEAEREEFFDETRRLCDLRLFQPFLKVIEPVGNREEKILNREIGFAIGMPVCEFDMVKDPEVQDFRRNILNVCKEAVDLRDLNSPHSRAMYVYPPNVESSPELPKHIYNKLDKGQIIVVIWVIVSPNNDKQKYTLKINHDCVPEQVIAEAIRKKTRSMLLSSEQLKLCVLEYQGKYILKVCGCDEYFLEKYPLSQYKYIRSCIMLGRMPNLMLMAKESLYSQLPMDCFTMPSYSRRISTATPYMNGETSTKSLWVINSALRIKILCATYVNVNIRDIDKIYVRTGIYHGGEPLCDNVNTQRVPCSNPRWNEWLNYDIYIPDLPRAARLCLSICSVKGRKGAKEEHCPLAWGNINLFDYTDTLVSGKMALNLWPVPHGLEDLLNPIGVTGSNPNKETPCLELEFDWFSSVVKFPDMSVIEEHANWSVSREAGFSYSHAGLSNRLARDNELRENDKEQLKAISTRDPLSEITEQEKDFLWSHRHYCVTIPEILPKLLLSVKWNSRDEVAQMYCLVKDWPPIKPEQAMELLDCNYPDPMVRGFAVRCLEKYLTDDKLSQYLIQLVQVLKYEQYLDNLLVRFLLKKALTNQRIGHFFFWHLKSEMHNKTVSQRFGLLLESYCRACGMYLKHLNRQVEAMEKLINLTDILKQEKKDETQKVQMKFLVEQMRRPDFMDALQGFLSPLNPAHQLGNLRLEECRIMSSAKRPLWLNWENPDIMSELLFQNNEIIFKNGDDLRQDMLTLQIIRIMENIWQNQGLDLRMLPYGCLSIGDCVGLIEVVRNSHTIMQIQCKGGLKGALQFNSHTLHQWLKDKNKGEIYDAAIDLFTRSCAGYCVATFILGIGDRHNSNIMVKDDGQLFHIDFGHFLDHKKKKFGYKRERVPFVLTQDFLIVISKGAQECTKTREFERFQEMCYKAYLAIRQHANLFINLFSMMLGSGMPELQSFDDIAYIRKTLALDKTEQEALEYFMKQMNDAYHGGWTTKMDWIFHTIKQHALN
Chain of PIK3C2B (human) (O00750 whole entry, looked up): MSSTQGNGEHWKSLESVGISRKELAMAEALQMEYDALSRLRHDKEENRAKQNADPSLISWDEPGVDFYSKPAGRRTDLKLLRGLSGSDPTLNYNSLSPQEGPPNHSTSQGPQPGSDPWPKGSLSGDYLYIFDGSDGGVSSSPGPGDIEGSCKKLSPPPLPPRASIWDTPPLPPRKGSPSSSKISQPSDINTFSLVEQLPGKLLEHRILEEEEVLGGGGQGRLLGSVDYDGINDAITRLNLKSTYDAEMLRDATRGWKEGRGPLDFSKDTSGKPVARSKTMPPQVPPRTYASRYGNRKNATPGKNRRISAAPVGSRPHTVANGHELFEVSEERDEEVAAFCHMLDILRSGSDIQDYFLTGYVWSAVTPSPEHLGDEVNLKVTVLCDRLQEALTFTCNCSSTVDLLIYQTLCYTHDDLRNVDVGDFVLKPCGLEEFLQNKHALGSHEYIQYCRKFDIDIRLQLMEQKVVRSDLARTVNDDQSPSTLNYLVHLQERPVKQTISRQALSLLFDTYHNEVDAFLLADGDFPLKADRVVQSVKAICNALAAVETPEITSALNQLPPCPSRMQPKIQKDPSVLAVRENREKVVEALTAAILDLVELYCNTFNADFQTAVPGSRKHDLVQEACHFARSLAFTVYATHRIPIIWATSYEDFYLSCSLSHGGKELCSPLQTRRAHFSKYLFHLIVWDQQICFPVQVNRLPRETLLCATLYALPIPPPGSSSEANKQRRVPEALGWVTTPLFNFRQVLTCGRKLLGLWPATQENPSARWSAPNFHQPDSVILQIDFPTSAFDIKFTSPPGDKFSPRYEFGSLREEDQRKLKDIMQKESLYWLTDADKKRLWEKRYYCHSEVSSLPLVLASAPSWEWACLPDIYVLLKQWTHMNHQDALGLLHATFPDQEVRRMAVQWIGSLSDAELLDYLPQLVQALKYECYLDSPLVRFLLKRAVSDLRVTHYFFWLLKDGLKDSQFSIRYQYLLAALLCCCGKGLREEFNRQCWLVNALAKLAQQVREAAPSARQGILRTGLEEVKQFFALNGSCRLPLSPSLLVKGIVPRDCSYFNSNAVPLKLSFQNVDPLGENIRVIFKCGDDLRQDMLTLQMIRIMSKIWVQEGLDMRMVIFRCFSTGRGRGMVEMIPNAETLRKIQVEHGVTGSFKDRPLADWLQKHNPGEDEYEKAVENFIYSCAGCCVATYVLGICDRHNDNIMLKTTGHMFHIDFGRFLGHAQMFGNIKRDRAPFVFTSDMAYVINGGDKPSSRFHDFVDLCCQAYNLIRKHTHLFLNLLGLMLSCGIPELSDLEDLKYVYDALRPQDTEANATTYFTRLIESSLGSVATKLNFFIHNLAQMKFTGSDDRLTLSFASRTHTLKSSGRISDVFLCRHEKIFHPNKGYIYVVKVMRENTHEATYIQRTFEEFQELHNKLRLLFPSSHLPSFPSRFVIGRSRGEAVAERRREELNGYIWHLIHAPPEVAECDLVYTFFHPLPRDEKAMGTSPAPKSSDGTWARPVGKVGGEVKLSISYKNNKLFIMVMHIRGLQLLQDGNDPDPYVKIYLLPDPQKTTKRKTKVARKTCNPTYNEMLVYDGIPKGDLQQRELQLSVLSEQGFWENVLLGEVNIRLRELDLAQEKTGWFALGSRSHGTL

Cn1cc(C2=C(c3ccc(Cl)cc3Cl)C(=O)NC2=O)c2ccccc21
kinase still bound, per cent of control [1]: 100% | kinase still bound, per cent of control [2]: 100% | kinase still bound, per cent of control (ALK (human)): 100% | kinase still bound, per cent of control (BMPR2 (human)): 100% | kinase still bound, per cent of control (BRSK1 (human)): 90% | kinase still bound, per cent of control (CAMK2A (human)): 36% | kinase still bound, per cent of control (CDK15 (human)): 66% | kinase still bound, per cent of control (CDK3 (human)): 14% | kinase still bound, per cent of control (CSNK1G1 (human)): 81% | kinase still bound, per cent of control (CSNK1G2 (human)): 100% | kinase still bound, per cent of control (DDR1 (human)): 100% | kinase still bound, per cent of control (EPHA7 (human)): 95% | kinase still bound, per cent of control (EPHA8 (human)): 100% | kinase still bound, per cent of control (FGR (human)): 100% | kinase still bound, per cent of control [3]: 16% | kinase still bound, per cent of control [4]: 62% | kinase still bound, per cent of control [5]: 47% | kinase still bound, per cent of control (IGF1R (human)): 95% | kinase still bound, per cent of control (INSR (human)): 91% | kinase still bound, per cent of control (ITK (human)): 100% | kinase still bound, per cent of control (KDR (human)): 100% | kinase still bound, per cent of control [6]: 89% | kinase still bound, per cent of control (MAP3K2 (human)): 100% | kinase still bound, per cent of control (MAP3K6 (human)): 64% | kinase still bound, per cent of control (MAP4K3 (human)): 70% | kinase still bound, per cent of control (MAPK13 (human)): 100% | kinase still bound, per cent of control (MAPK9 (human)): 59% | kinase still bound, per cent of control (MAPKAPK5 (human)): 100% | kinase still bound, per cent of control (MARK4 (human)): 100% | kinase still bound, per cent of control (MAST1 (human)): 82% | kinase still bound, per cent of control (NTRK3 (human)): 62% | kinase still bound, per cent of control (PIK3C2B (human)): 100% | kinase still bound, per cent of control [7]: 100% | kinase still bound, per cent of control (PIK3CD (human)): 100% | kinase still bound, per cent of control [8]: 83% | kinase still bound, per cent of control (RPS6KA4 KD2 (human)): 96% | kinase still bound, per cent of control (SIK2 (human)): 89% | kinase still bound, per cent of control (STK17B (human)): 100% | kinase still bound, per cent of control (STK36 (human)): 100% | kinase still bound, per cent of control (TEC (human)): 84% | kinase still bound, per cent of control (TYRO3 (human)): 100% | kinase still bound, per cent of control (WEE2 (human)): 100%

O=C1Nc2cc(Br)ccc2/C1=C1/Nc2ccccc2/C1=N\O
kinase still bound, per cent of control [1]: 5.2% | kinase still bound, per cent of control [2]: 4.2% | kinase still bound, per cent of control (ALK (human)): 44% | kinase still bound, per cent of control (BMPR2 (human)): 46% | kinase still bound, per cent of control (BRSK1 (human)): 1.8% | kinase still bound, per cent of control (CAMK2A (human)): 0.8% | kinase still bound, per cent of control (CDK15 (human)): 53% | kinase still bound, per cent of control (CDK3 (human)): 75% | kinase still bound, per cent of control (CSNK1G1 (human)): 39% | kinase still bound, per cent of control (CSNK1G2 (human)): 78% | kinase still bound, per cent of control (DDR1 (human)): 55% | kinase still bound, per cent of control (EPHA7 (human)): 62% | kinase still bound, per cent of control (EPHA8 (human)): 40% | kinase still bound, per cent of control (FGR (human)): 1.4% | kinase still bound, per cent of control [3]: 0% | kinase still bound, per cent of control [4]: 0.15% | kinase still bound, per cent of control [5]: 0% | kinase still bound, per cent of control (IGF1R (human)): 83% | kinase still bound, per cent of control (INSR (human)): 72% | kinase still bound, per cent of control (ITK (human)): 11% | kinase still bound, per cent of control (KDR (human)): 0.9% | kinase still bound, per cent of control [6]: 2.3% | kinase still bound, per cent of control (MAP3K2 (human)): 56% | kinase still bound, per cent of control (MAP3K6 (human)): 41% | kinase still bound, per cent of control (MAP4K3 (human)): 24% | kinase still bound, per cent of control (MAPK13 (human)): 100% | kinase still bound, per cent of control (MAPK9 (human)): 63% | kinase still bound, per cent of control (MAPKAPK5 (human)): 100% | kinase still bound, per cent of control (MARK4 (human)): 35% | kinase still bound, per cent of control (MAST1 (human)): 2.8% | kinase still bound, per cent of control (NTRK3 (human)): 16% | kinase still bound, per cent of control (PIK3C2B (human)): 100% | kinase still bound, per cent of control [7]: 100% | kinase still bound, per cent of control (PIK3CD (human)): 100% | kinase still bound, per cent of control [8]: 0% | kinase still bound, per cent of control (RPS6KA4 KD2 (human)): 44% | kinase still bound, per cent of control (SIK2 (human)): 8.2% | kinase still bound, per cent of control (STK17B (human)): 0% | kinase still bound, per cent of control (STK36 (human)): 53% | kinase still bound, per cent of control (TEC (human)): 100% | kinase still bound, per cent of control (TYRO3 (human)): 91% | kinase still bound, per cent of control (WEE2 (human)): 100%

COc1ccc(CNC(=O)Nc2ncc([N+](=O)[O-])s2)cc1
kinase still bound, per cent of control [1]: 100% | kinase still bound, per cent of control [2]: 100% | kinase still bound, per cent of control (ALK (human)): 100% | kinase still bound, per cent of control (BMPR2 (human)): 100% | kinase still bound, per cent of control (BRSK1 (human)): 100% | kinase still bound, per cent of control (CAMK2A (human)): 100% | kinase still bound, per cent of control (CDK15 (human)): 100% | kinase still bound, per cent of control (CDK3 (human)): 68% | kinase still bound, per cent of control (CSNK1G1 (human)): 66% | kinase still bound, per cent of control (CSNK1G2 (human)): 82% | kinase still bound, per cent of control (DDR1 (human)): 100% | kinase still bound, per cent of control (EPHA7 (human)): 100% | kinase still bound, per cent of control (EPHA8 (human)): 100% | kinase still bound, per cent of control (FGR (human)): 100% | kinase still bound, per cent of control [3]: 86% | kinase still bound, per cent of control [5]: 89% | kinase still bound, per cent of control (IGF1R (human)): 100% | kinase still bound, per cent of control (ITK (human)): 95% | kinase still bound, per cent of control (KDR (human)): 67% | kinase still bound, per cent of control [6]: 100% | kinase still bound, per cent of control (MAP3K2 (human)): 96% | kinase still bound, per cent of control (MAP3K6 (human)): 85% | kinase still bound, per cent of control (MAP4K3 (human)): 90% | kinase still bound, per cent of control (MAPK13 (human)): 94% | kinase still bound, per cent of control (MAPK9 (human)): 84% | kinase still bound, per cent of control (MAPKAPK5 (human)): 100% | kinase still bound, per cent of control (MARK4 (human)): 100% | kinase still bound, per cent of control (MAST1 (human)): 98% | kinase still bound, per cent of control (NTRK3 (human)): 85% | kinase still bound, per cent of control (PIK3C2B (human)): 94% | kinase still bound, per cent of control [7]: 100% | kinase still bound, per cent of control (PIK3CD (human)): 100% | kinase still bound, per cent of control [8]: 96% | kinase still bound, per cent of control (RPS6KA4 KD2 (human)): 85% | kinase still bound, per cent of control (SIK2 (human)): 80% | kinase still bound, per cent of control (STK17B (human)): 74% | kinase still bound, per cent of control (STK36 (human)): 100% | kinase still bound, per cent of control (TEC (human)): 100% | kinase still bound, per cent of control (TYRO3 (human)): 93% | kinase still bound, per cent of control (WEE2 (human)): 100%
